Measurements: patent US20070276126A1, “Cell adhesion and extracellular matrix proteins” (Incyte Corporation, priority 2002, published 2007)

What was measured:
[1] = test system: expression of SEQ ID NO:78 in PHA blasts (T cell blasts derived from PBMCs); assay: Microarray analysis of SEQ ID NO:78 expression in reactivated PHA blasts versus untreated PHA blasts; format: cell-based, human; settings: PHA blasts stimulated for 2 hours, versus matching untreated PHA blasts, one donor tested
Protocol: (§1) Total RNA is isolated from tissue samples using the guanidinium thiocyanate method and poly(A)^+ RNA is purified using the oligo-(dT) cellulose method. Each poly(A)^+ RNA sample is reverse transcribed using MMLV reverse-transcriptase, 0.05 pg/μl oligo-(dT) primer (21 mer), 1× first strand buffer, 0.03 units/μl RNase inhibitor, 500 μM dATP, 500 μM dGTP, 500 μM dTTP, 40 μM dCTP, 40 μM dCTP-Cy3 (BDS) or dCTP-Cy5 (Amersham Biosciences). The reverse transcription reaction is performed in a […] containing 200 ng poly(A)^+ RNA with GEMBRIGHT kits (Incyte). Specific control poly(A)^+ RNAs are synthesized by in vitro transcription from non-coding yeast genomic DNA. […]
(§2) Reporter-labeled hybridization complexes are detected with a microscope equipped with an Innova 70 mixed gas 10 W laser (Coherent, Inc., Santa Clara Calif.) capable of generating spectral lines at 488 nm for excitation of Cy3 and at 632 nm for excitation of Cy5. […]
(§3) A grid is superimposed over the fluorescence signal image such that the signal from each spot is centered in each element of the grid. The fluorescence signal within each element is then integrated to obtain a numerical value corresponding to the average intensity of the signal. […]

[2] = test system: expression of SEQ ID NO:78 in normal and Tangier disease derived fibroblasts; assay: Microarray analysis of SEQ ID NO:78 expression in fibroblasts cultured in the presence versus absence of cholesterol; format: cell-based, human; settings: fibroblasts cultured in the presence of cholesterol versus same cell type in the absence of cholesterol (one of 'both types of comparisons')
Protocol: as §1, §2, §3

Row | Structure (SMILES) | downregulation of SEQ ID NO:78 [1] | downregulation of SEQ ID NO:78 [2]
1 | CCCCCCCCCCCCCC(=O)O[C@@H]1[C@@H](C)[C@@]2(O)[C@@H](C=C(CO)C[C@]3(O)C(=O)C(C)=C[C@@H]23)[C@@H]2C(C)(C)[C@]12OC(C)=O [PMA, phorbol myristate acetate] | at least two | –
2 | CC(C)CCC[C@@H](C)[C@H]1CC[C@H]2[C@@H]3CC=C4C[C@@H](O)CC[C@]4(C)[C@H]3CC[C@]12C [cholesterol] | – | at least two
